Test results reported in patent US20170151299A1, “EXTRACTS OF SANTOLINA CHAMAECYPARISSUS” (priority 2014, published 2017).
In brackets after ≈: the same amount, converted by molar mass. Read-outs that look alike come from different tables or passages of the source.

How the values were obtained:
[1] = test system: Propionibacterium acnes; test: Minimum inhibitory concentration (MIC); type: cell-based; details: Cutibacterium acnes; Propionibacterium acnes (anaerobic); read-out: MIC (mg/mL) P. acnes
Description: In a second step for the optimized extract of S. chamaecyparissus, the minimum inhibitory concentration (MIC) and the minimum bactericidal concentration (MBC) were also measured including E. coli and P. acnes. […] The MBC is the lowest concentration of antibacterial agent required to kill a particular bacterium, that is to say to reduce the viability of the initial bacterial inoculum by >99.9%. The dilutions were run in triplicate for the MIC and MBC test. At the end of the incubation, the tubes were read for the growth inhibition and then the MBC was determined by sampling all the macroscopically clear tubes and the first turbid tube in the series.
The results were expressed in mg/mL of extract.
The optimized extract was then assessed for its antimicrobial activity and more particularly in order to determine the minimum inhibitory concentration for Propionibacterium acnes (gram-positive bacteria). Methyl paraben and phenoxyethanol, as universal antimicrobial agents, were used as positive control. Due to the a higher active substance (I) content, the impact on the antimicrobial activity and more particularly on an anaerobic bacteria was evaluated.

[2] = test system: Staphylococcus aureus; test: 96-well microtiter plate growth inhibition assay; type: cell-based; details: for inhibition at 200000 µg/mL (stock): 200 mg/mL sample at 2% in well (positive standard 0.4%)
Description: (§1) Antimicrobial activity of the crude extracts was determined using a 96-well microtiter plate assay based on growth inhibition. The assay was performed on […] different microbial strains, chosen according to the European Pharmacopoeia (ATCC references): Staphylococcus aureus ([…]), Escherichia coli (gram-negative bacteria), Pseudomonas aeruginosa ([…]), Propionibacterium acnes (anaerobic gram-positive bacteria), Aspergillus niger (fungus) and Candida albicans (yeast).
(§2) Samples for antimicrobial assay were prepared as follows: crude extracts were diluted at 200 mg/mL in a mixture of appropriate solvents, e.g. ethanol and water (60:40 v/v) or pure dimethylsulfoxide. After solubilization, the solutions were filtrated on 0.45 μm syringe filters.
(§3) The assay was performed for each strain according as follows: samples (at 200 mg/mL) were first diluted to 4% in water, then to 2% and 0.2% in wells. Final concentrations were also 0.4 and 0.04% of crude extracts in wells. Each concentration was assessed in replicate with one supplementary control well containing no microbial strain. For the assay at 2%, samples were mixed up in the wells with growth medium (95 μL) and microbial suspension (representing an absorbance of 0.6 for C. albicans, S. aureus and P. aeruginosa and 40 spores/μL for A. niger). For the assay at 0.2%, samples were first diluted to 0.2% with water in the wells. Negative controls constituted of the solvent mixture used to prepare the sample solutions, and positive controls with a synthetic preservative (methyl-paraben and/or phenoxyethanol, positive standard) were also prepared. Results were also compared with those obtained using a commercial natural preservative (commercial preservative). The 96-well plates were incubated at 25° C.
(§4) The absorbance was read for each plate at 620 nm 24, 48 and 72 hours after the beginning of the incubation to evaluate the growth of each microorganism in presence of crude extracts.
(§5) The results were expressed as a percentage of growth inhibition by the samples for each microorganism.

[3] = test system: Pseudomonas aeruginosa; test: 96-well microtiter plate growth inhibition assay; type: cell-based; details: for inhibition: 200 mg/mL sample at 2% in well (positive standard 0.4%)
Description: as §1, §2, §3, §4, §5

[4] = test system: Aspergillus niger; test: 96-well microtiter plate growth inhibition assay; type: cell-based; details: for inhibition at 200000 µg/mL (stock): 200 mg/mL sample at 2% in well (positive standard 0.4%)
Description: as §1, §2, §3, §4, §5

[5] = test system: Candida albicans; test: 96-well microtiter plate growth inhibition assay; type: cell-based; details: for inhibition: 200 mg/mL sample at 2% in well (positive standard 0.4%)
Description: as §1, §2, §3, §4, §5

[6] = type: physicochemical
Description: The pure compound appeared to be unstable once isolated, and particularly in aqueous and acid conditions. Since antimicrobial assays were performed in water, its antimicrobial activity could not be evaluated as for crude extracts or plant fractions. Thus, the inventors tried to establish a relationship between antimicrobial activity and active substance content in crude extracts.

[7] = 24 h, read-out: Growth inhibition (%) 24 h, 2%
[8] = 48 h, read-out: Growth inhibition (%) 48 h, 2%
[9] = medium inhibition at 2%, Table 2
[10] = 72 h, read-out: Growth inhibition (%) 72 h, 2%

Row | Compound | MIC [1] | inhibition at 200000 µg/mL (stock) [2, 7] | inhibition at 200000 µg/mL (stock) [2, 8] | Review [2, 9] | inhibition [3, 8] | inhibition [3, 10] | Review [3, 9] | inhibition at 200000 µg/mL (stock) [4, 8] | inhibition at 200000 µg/mL (stock) [4, 10] | Review [4, 9] | inhibition [5, 7] | inhibition [5, 8] | Review [5, 9] | stability once isolated [6]
1 | COC(=O)c1ccc(O)cc1 [Positive standard, Methylparaben] | 2.53 mg/mL (≈ 16.6 mM) | 80% | 93% | ++ (medium inhibition comprised between 70% and 90%) | 75% | 81% | ++ (medium inhibition comprised between 70% and 90%) | 100% | 100% | +++ (medium inhibition greater or equal to 90%) | 99% | 100% | +++ (medium inhibition greater or equal to 90%) | 
2 | CC#CC#C/C=C1/C=CC2(OC=CC2OC(C)=O)O1 (centres unmarked) [pure compound, 1,6-dioxaspiro[4,4]nona-2,8-dien-4-ol,7-(2,4-hexadiyn-1-ylidene)-,4-acetate] |  |  |  |  |  |  |  |  |  |  |  |  |  | unstable
